According to patent publication US20070148250A1, “Loading of a camptothecin drug into colloidal nanoparticles” (priority 2003, published 2007):

Tests used:
Assay type in all cases: physicochemical
[1] = Stability of camptothecin carboxylate in concentrated alkaline media (HPLC)
Description: CPT-carboxylate can be obtained quantitatively from the lactone form of CPT by incubation the latter with at least an equimolar amount or an excess of base (e.g. NaOH or NH4OH). In the most simple approach CPT lactone is stirred with 1 M NaOH or NH4OH ovenight. Higher concentrations are favourable to accelerate the process.
Camptothecin in the lactone form was dissolved at a concentration of 4.6 μg/ml in concentrated ammonia (NH4OH) in order to obtain the carboxylate form. HPLC analysis was performed directly after dissolving the lactone and after 19 days.

[2] = Fraction of free (non-liposomally bound) CPT by Vivaspin 2 centrifugal filtration (MWCO 100 kDa) and UV-spectroscopy of the filtrate
Description: For direct comparison, CPT-carboxylate loaded liposomes were made by one of the techniques as given in the literature. Liposomes, loaded with CPT-carboxylate produced by the inventive method were prepared with the same total composition. The fraction of free (non-liposomally bound) CPT was determined in both cases. The free CPT was determined by centrifugation with the centrifugal concentrator Vivaspin 2 (Vivasciences). By a membrane of MWCO 100 kDa, the molecularly dissolved solutes were separated from the colloidal particles. The concentration of CPT in the filtrate was determined by UV-spectroscopy. All measurements with camptothecin were made with tris/HCI buffer, pH 7.5, 10 mM or 20 mM.
For the production of classically made formulations, the liposomes were formed directly in the aqueous solution of CPT carboxylate. By subsequent extrusion through membranes of 200 nm pore size homogeneous mixing and encapsulation was provided. The liposomes were made either by the ‘film method’ or by ‘ethanol injection’.
For the film method, a solution of lipids in chloroform is evaporated in a round bottom flask. A thin dry lipid film is formed at the inner wall of the flask. For the production of empty liposomes, the film is reconstituted with water or buffer solution. For the production of CPT loaded liposomes, the film is reconstituted with the CPT-carboxylate solution. […]
A lyophilisate of DOTAP liposomes (30 mM) was reconstituted with 2.088 ml of an aqueous solution of CPT carboxylate in water (1.4 mM). […] From the resulting preparation the fraction of free CPT was determined by centrifugation at different lipid concentrations.
1 ml of the DOTAP concentrate and 9 ml of CPT carboxylate solution, c=[…] were mixed. […] This preparation was diluted 1:10 1:25 and 1:50 and the fraction of free CPT was determined.
Liquid DOTAP formulations were exposed to CPT-carboxylate solutions for different time scales. […] After the given time, the fraction of free CPT was determined for different dilutions. […]

[3] = Solubility of camptothecin in buffered aqueous phase at different pH values; conditions: 50 mM buffer, pH values below 7, within few days
Description: In this measurements, the solubility of camptothecin in aqueous media at different pH values is investigated. Pure camptothecin carboxylate was dissolved in a buffered (50 mM) aqueous phase at different pH values. At different times the solutions were centrifuged in order to remove camptothecin lactone crystals and the remaining concentration of the camptothecin in the supernatant was determined by UV-vis spectroscopy. […] These concentrations are too low for sufficient pharmaceutical efficacy.

[4] = Loading of aminofluorescein to DOTAP/DOPC liposomes, cross-flow filtration and UV-vis; conditions: DOTAP/DOPC 1:1 liposomes, after three cycles of filtration
Description: A 25 mM liposome formulation consisting of DOTAP/DOPC 1:1 in a solution of 5% glucose (w/v) was prepared. Briefly, a solution of DOTAP/DOPC in chloroform was put into a round bottom flask, and the solvent was evaporated in order to obtain a thin lipid film. The lipid film was reconstituted with the glucose solution to a total lipid concentration of 25 mM. The resulting multilamellar, polydisperse liposome suspension was extruded through a membrane of 200 nm pore size to obtain liposomes of uniform size.
10 ml of the liposome preparation and 10 ml of a 5 mM aqueous solution of aminofluorescein were combined.
Subsequently, the molecularly dissolved components were removed by cross-flow filtration, using a VIVAFLOW filtration kit, […] and a Masterflex easy lod pump, model.
20 ml of the preparation were diluted with 20 ml glucose. By the subsequent dialysis, part of the solvent and the molecularly dissolved (low molecular) compound penetrated across the separation membrane, while the liposomes were retained. Filtration was performed until the volume of the original solution was reduced to half of the start volume. Then the lost volume was substituted by glucose solution and the filtration was started again. Three filtration cycles were performed.
The concentration of aminofluorescein in the permeate and in the retained liposome suspension was determined by UV-vis spectroscopy.

## CC[C@@]1(O)C(=O)OCc2c1cc1n(c2=O)Cc2cc3ccccc3nc2-1 [Camptothecin, 20(S)-Camptothecine (1H-Pyrano[3′,4′:6,7]indolizino[1,2-b]quinoline-3,14 (4H,12H)-dione, 4-ethyl-4-hydroxy-, (S)—)]
[1]; 4.6 μg/ml in concentrated ammonia (NH4OH), after 19 days
  degradation by the alkaline medium (HPLC): no indication for a degradation
[2]; DOTAP 15 mM, CPT carboxylate 0.75 mM, original concentration, Tris/HCl 10 mM pH 7.5
  loading of DOTAP liposomes with CPT at first time point after mixing: loading reached saturation
[2]; diluted samples of DOTAP 15 mM/CPT 0.75 mM mixture, not stirred
  time up to which fraction of loaded drug increased: up to 4 hours
[3]
  concentration of camptothecin remaining in supernatant: very low values

## aminofluorescein
[4]; 5% glucose
  amount retained with the liposome suspension: 47 % of the original concentration
[4]
  retained amount relative to expected value without any retention: four times as high

## CCC(O)(C(=O)O)c1cc2n(c(=O)c1CO)Cc1cc3ccccc3nc1-2 (centres unmarked) [camptothecin carboxylate]
[1]
  chemical degradation: no indication for chemical degradation
[2]; 30-100% DOTAP, total lipid 15 mM, CPT 0.75 mM, additional presence of DOPC
  loading efficacy in DOTAP/DOPC liposomes: only slightly reduced
